According to patent US7932270B2 (Cytokinetics, Inc., priority 2006, dated 2011):

Molecular target: T1, chicken gizzard smooth muscle myosin subfragment-1 chemically crosslinked to cardiac or skeletal actin (Gallus gallus, UniProt P10587)
T1 construct: chicken gizzard smooth muscle myosin subfragment-1; from tissue; host or cells: chicken gizzard
Assay: Smooth muscle myosin ATPase dose response assay (pyruvate kinase/horseradish peroxidase/pyruvate oxidase-coupled, amplex red fluorescence)
Type: biochemical
Conditions: read-out: IC50 Arithmetic Mean
Outline: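 Readout is amplex red signal from coupled ATPase of actin-crosslinked gizzard myosin S1 (0.15 mM ATP, 12 mM K-PIPES, pH 7.00). IC50 is the half-maximal activity point of a four-parameter Hill fit.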

T1 sequence (P02607 2-151): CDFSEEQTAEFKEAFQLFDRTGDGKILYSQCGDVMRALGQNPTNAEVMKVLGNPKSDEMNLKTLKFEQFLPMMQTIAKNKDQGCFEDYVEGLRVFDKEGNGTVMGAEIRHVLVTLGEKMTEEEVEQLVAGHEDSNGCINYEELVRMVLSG
T1 sequence (P10587 84-789): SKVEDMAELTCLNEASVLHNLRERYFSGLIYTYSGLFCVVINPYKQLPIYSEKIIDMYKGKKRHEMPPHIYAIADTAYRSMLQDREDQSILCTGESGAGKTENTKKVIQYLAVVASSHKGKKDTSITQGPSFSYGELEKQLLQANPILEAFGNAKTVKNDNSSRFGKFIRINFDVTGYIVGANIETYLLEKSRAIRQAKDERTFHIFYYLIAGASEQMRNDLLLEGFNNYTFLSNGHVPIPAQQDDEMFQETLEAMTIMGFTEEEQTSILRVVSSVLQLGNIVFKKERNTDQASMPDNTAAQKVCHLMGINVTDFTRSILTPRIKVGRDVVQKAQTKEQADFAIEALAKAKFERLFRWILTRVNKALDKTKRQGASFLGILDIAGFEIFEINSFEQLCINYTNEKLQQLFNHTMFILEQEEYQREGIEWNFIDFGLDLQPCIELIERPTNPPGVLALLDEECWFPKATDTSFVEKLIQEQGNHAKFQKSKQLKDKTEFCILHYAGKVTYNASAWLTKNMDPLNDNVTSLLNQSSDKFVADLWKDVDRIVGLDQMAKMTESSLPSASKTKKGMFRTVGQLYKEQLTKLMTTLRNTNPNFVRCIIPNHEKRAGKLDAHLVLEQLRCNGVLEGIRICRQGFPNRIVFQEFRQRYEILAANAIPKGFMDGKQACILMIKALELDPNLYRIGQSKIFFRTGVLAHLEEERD

IC50 | Structure (SMILES)
12 nM | Cn1cc(-c2nc(NCCc3cccc(F)c3)c(C(=O)NCc3cccnc3)cc2F)cn1 [(5-fluoro-2-{[2-(3-fluorophenyl)ethyl]amino}-6-(1-methylpyrazol-4-yl)(3-pyridyl))-N-(3-pyridylmethyl)carboxamide]
29 nM | N#Cc1ccccc1-c1ccc(C(=O)NC[C@H]2CCCN2C(=O)CCCN)c(NCCc2cccc(F)c2)n1 [N-{[(2R)-1-(4-aminobutanoyl)pyrrolidin-2-yl]methyl}(6-(2-cyanophenyl)-2-{[2-(3-fluorophenyl)ethyl]amino}(3-pyridyl))carboxamide]
274 nM | N#Cc1ccccc1-c1ccc(C(=O)NC[C@H]2CCN2C(=O)[C@@H](N)CCCN)c(NCCc2cccc(F)c2)n1 [N-{[(2R)-1-((2S)-2,5-diaminopentanoyl)azetidin-2-yl]methyl}(6-(2-cyanophenyl)-2-{[2-(3-fluorophenyl)ethyl]amino}(3-pyridyl))carboxamide]
1800 nM | C[C@@H](CNC(=O)c1cc(F)c(-c2cnn(C)c2)nc1NCCc1cccc(F)c1)NC(=O)CN
426 nM | Cc1ccc(CNC(=O)c2ccc(-c3ccccc3C#N)nc2NCCc2cccc(F)c2)cn1 [(6-(2-cyanophenyl)-2-{[2-(3-fluorophenyl)ethyl]amino}(3-pyridyl))-N-[(6-methyl(3-pyridyl))methyl]carboxamide]
15 nM | N#Cc1ccccc1-c1ccc(C(=O)NC[C@H]2CCCC(=O)N2)c(NCCc2cccc(F)c2)n1 [N-[((2R)-6-oxo(2-piperidyl))methyl](6-(2-cyanophenyl)-2-{[2-(3-fluorophenyl)ethyl]amino}(3-pyridyl))carboxamide]
326 nM | CS(=O)(=O)NCCNC(=O)c1ccc(-c2ccccc2C#N)nc1NCCc1cccc(F)c1 [(6-(2-cyanophenyl)-2-{[2-(3-fluorophenyl)ethyl]amino}(3-pyridyl))-N-{2-[(methylsulfonyl)amino]ethyl}carboxamide]
11100 nM | N#Cc1ccccc1-c1ccc(C(=O)N[C@@H](CN)C(=O)O)c(NCCc2cccc(F)c2)n1 [(2S)-3-amino-2-[(6-(2-cyanophenyl)-2-{[2-(3-fluorophenyl)ethyl]amino}(3-pyridyl))carbonylamino]propanoic acid]
11500 nM | NC(=O)c1cccc(CCNc2nc(-c3ccccc3)ccc2C(=O)NCc2cccnc2)c1 [3-[2-({6-phenyl-3-[N-(3-pyridylmethyl)carbamoyl]-2-pyridyl}amino)ethyl]benzamide]
15100 nM | CCOC(=O)CNCC(O)c1ccc(-c2ccccc2)nc1NCCc1cccc(F)c1 (stereo not shown) [ethyl 2-{[2-(2-{[2-(3-fluorophenyl)ethyl]amino}-6-phenyl(3-pyridyl))-2-hydroxyethyl]amino}acetate]
623 nM | N#Cc1ccccc1-c1ccc(C(=O)NC[C@H]2CN(CCN)CC(=O)N2)c(NCCc2cccc(F)c2)n1 [N-{[(2S)-4-(2-aminoethyl)-6-oxopiperazin-2-yl]methyl}(6-(2-cyanophenyl)-2-{[2-(3-fluorophenyl)ethyl]amino}(3-pyridyl))carboxamide]
683 nM | O=C(NCc1ccsc1)c1ccc(-c2ccccc2)nc1NCCc1ccccn1 [{6-phenyl-2-[(2-(2-pyridyl)ethyl)amino](3-pyridyl)}-N-(3-thienylmethyl)carboxamide]
49 nM | C[C@H](CNC(=O)c1ccc(-c2ccccc2C#N)nc1NCCc1cccc(F)c1)NC(=O)CCCNC(=O)OC(C)(C)C
44 nM | N#Cc1ccccc1CCNc1nc(-c2ccccc2C#N)ccc1C(=O)NCc1cccnc1 [(6-(2-cyanophenyl)-2-{[2-(2-cyanophenyl)ethyl]amino}(3-pyridyl))-N-(3-pyridylmethyl)carboxamide]
5700 nM | N#Cc1ccccc1-c1ccc(C(=O)NC[C@@H](COC(=O)CN)NC(=O)CN)c(NCCc2cccc(F)c2)n1 [(2S)-2-(2-aminoacetylamino)-3-[(6-(2-cyanophenyl)-2-{[2-(3-fluorophenyl)ethyl]amino}(3-pyridyl))carbonylamino]propyl 2-aminoacetate]
12 nM | Cn1cc(-c2nc(NCCc3cccc(F)c3)c(C(=O)NCc3cccnc3CN)cc2F)cn1 [N-{[2-(aminomethyl)(3-pyridyl)]methyl}(5-fluoro-2-{[2-(3-fluorophenyl)ethyl]amino}-6-(1-methylpyrazol-4-yl)(3-pyridyl))carboxamide]
24 nM | NCc1ncccc1CNC(=O)c1ccc(-c2cn[nH]c2)nc1NCCc1cccc(F)c1 [N-{[2-(aminomethyl)(3-pyridyl)]methyl}(2-{[2-(3-fluorophenyl)ethyl]amino}-6-pyrazol-4-yl(3-pyridyl))carboxamide]
413 nM | N#Cc1ccccc1-c1ccc(C(=O)NC[C@H]2CCN2)c(NCCc2cccc(F)c2)n1 [N-[((2R)azetidin-2-yl)methyl](6-(2-cyanophenyl)-2-{[2-(3-fluorophenyl)ethyl]amino}(3-pyridyl))carboxamide]
56000 nM | O=C(NCc1cccnc1)c1cc(C(=O)NCc2cccnc2)c(-c2ccccc2)nc1NCCc1cccc(F)c1 [(2-{[2-(3-fluorophenyl)ethyl]amino}-6-phenyl-5-[N-(3-pyridylmethyl)carbamoyl](3-pyridyl))-N-(3-pyridylmethyl)carboxamide]
562 nM | NCC(=O)N1CC[C@@H]1CNC(=O)c1ccc(-c2cn[nH]c2)nc1NCCc1cccc(F)c1 [N-{[(2R)-1-(2-aminoacetyl)azetidin-2-yl]methyl}(2-{[2-(3-fluorophenyl)ethyl]amino}-6-pyrazol-4-yl(3-pyridyl))carboxamide]
4420 nM | N#Cc1ccccc1-c1ccc(C(=O)N[C@@H](CCCCN)C(N)=O)c(NCCc2cccc(F)c2)n1 [N-((1S)-5-amino-1-carbamoylpentyl)(6-(2-cyanophenyl)-2-{[2-(3-fluorophenyl)ethyl]amino}(3-pyridyl))carboxamide]
20 nM | NCCNc1cccc(CNC(=O)c2ccc(-c3cn[nH]c3)nc2NCCc2cccc(F)c2)n1 [N-({6-[(2-aminoethyl)amino](2-pyridyl)}methyl)(2-{[2-(3-fluorophenyl)ethyl]amino}-6-pyrazol-4-yl(3-pyridyl))carboxamide]
1970 nM | N#Cc1ccccc1-c1ccc(C(=O)NC[C@H]2CCCNC2)c(NCCc2cccc(F)c2)n1 [N-[((3S)(3-piperidyl))methyl](6-(2-cyanophenyl)-2-{[2-(3-fluorophenyl)ethyl]amino}(3-pyridyl))carboxamide]
138 nM | O=C(NCc1cccnc1)c1ccc(-c2ccc(F)cc2)nc1NCCc1cc(F)cc(F)c1 [(2-{[2-(3,5-difluorophenyl)ethyl]amino}-6-(4-fluorophenyl)(3-pyridyl))-N-(3-pyridylmethyl)carboxamide]
996 nM | Cc1ccc(-c2ccc(C(=O)NCc3cccnc3)c(NCCc3cccc(F)c3)n2)c(C#N)c1 [(6-(2-cyano-4-methylphenyl)-2-{[2-(3-fluorophenyl)ethyl]amino}(3-pyridyl))-N-(3-pyridylmethyl)carboxamide]
441 nM | CC(C)[C@H](CNC(=O)c1ccc(-c2ccccc2C#N)nc1NCCc1cccc(F)c1)NC(=O)CO [N-((1R)-1-{[(6-(2-cyanophenyl)-2-{[2-(3-fluorophenyl)ethyl]amino}(3-pyridyl))carbonylamino]methyl}-2-methylpropyl)-2-hydroxyacetamide]
30 nM | Cn1cc(-c2nc(NCCc3cccc(F)c3)c(C(=O)NCc3cccnc3CN)cc2Cl)cn1 [N-{[2-(aminomethyl)(3-pyridyl)]methyl}(5-chloro-2-{[2-(3-fluorophenyl)ethyl]amino}-6-(1-methylpyrazol-4-yl)(3-pyridyl))carboxamide]
17 nM | N#Cc1ccccc1-c1ccc(C(=O)NCc2cccnc2NCCCN)c(NCCc2cccc(F)c2)n1 [N-({2-[(3-aminopropyl)amino](3-pyridyl)}methyl)(6-(2-cyanophenyl)-2-{[2-(3-fluorophenyl)ethyl]amino}(3-pyridyl))carboxamide]
233 nM | N#Cc1ccccc1-c1ccc(C(=O)NCc2cccc(Br)n2)c(NCCc2cccc(F)c2)n1 [N-[(6-bromo(2-pyridyl))methyl](6-(2-cyanophenyl)-2-{[2-(3-fluorophenyl)ethyl]amino}(3-pyridyl))carboxamide]
5930 nM | O=C(NCc1cccnc1)c1ccc(-c2cccc(C(F)(F)F)c2)nc1NCCc1ccccn1 [{2-[(2-(2-pyridyl)ethyl)amino]-6-[3-(trifluoromethyl)phenyl](3-pyridyl)}-N-(3-pyridylmethyl)carboxamide]

Structure (SMILES) | IC50
C[C@@H](NC(=O)OC(C)(C)C)C(=O)N1CCC[C@@H]1CNC(=O)c1ccc(-c2ccccc2C#N)nc1NCCc1cccc(F)c1 [N-[(1R)-2-((2R)-2-{[(6-(2-cyanophenyl)-2-{[2-(3-fluorophenyl)ethyl]amino}(3-pyridyl))carbonylamino]methyl}pyrrolidinyl)-1-methyl-2-oxoethyl](tert-butoxy)carboxamide] | 3940 nM
Cn1cc(-c2nc(NCCc3cccc(F)c3)c(C(=O)NC[C@H]3CCN3C(=O)CNC(=O)OC(C)(C)C)cc2F)cn1 [N-[((2R)-1-{2-[(tert-butoxy)carbonylamino]acetyl}azetidin-2-yl)methyl](5-fluoro-2-{[2-(3-fluorophenyl)ethyl]amino}-6-(1-methylpyrazol-4-yl)(3-pyridyl))carboxamide] | 436 nM
CC(C)(C)OC(=O)NCCCC(=O)N1CCC[C@@H]1CNC(=O)c1ccc(-c2ccccc2C#N)nc1NCCc1cccc(F)c1 [N-[((2R)-1-{4-[(tert-butoxy)carbonylamino]butanoyl}pyrrolidin-2-yl)methyl](6-(2-cyanophenyl)-2-{[2-(3-fluorophenyl)ethyl]amino}(3-pyridyl))carboxamide] | 432 nM
Cn1cc(-c2ccc(C(=O)NC[C@H]3CCCN3C(=O)CNC(=O)OC(C)(C)C)c(NCCc3cccc(F)c3)n2)cn1 [N-[((2R)-1-{2-[(tert-butoxy)carbonylamino]acetyl}pyrrolidin-2-yl)methyl](2-{[2-(3-fluorophenyl)ethyl]amino}-6-(1-methylpyrazol-4-yl)(3-pyridyl))carboxamide] | 5530 nM
